Results on five compounds are retold here after US20070032537A1, “5-Substituted 2h-pyrazole-3-carboxylic acid derivatives as agonists for the acid receptor rup25 for the treatment of dyslipidemia and related diseases” (Arena Pharmaceuticals, Inc., priority 2003, published 2007).

Read-outs that look alike come from different tables or passages of the source.

Experiment [1] addresses T1, hRUP25 (Homo sapiens, UniProt Q8TDS4). Nature of the experiment: Flash Plate adenylyl cyclase (cAMP) assay for agonists to hRUP25 in stably transfected CHO cells (clone 46). It counts as cell-based. The note with it: read-out: RUP25 (EC50). The text has this: A modified Flash Plate™ Adenylyl Cyclase kit (New England Nuclear; Cat. No. SMP004A) is used for direct identification of candidate compounds as agonists to hRUP25 in accordance with the following protocol:
Stably transfected CHO cells (clone 46) were harvested from flasks via non-enzymatic means. The cells were washed in PBS and resuspended in the manufacturer's Assay Buffer. Live cells were counted using a hemacytometer and Trypan blue exclusion, and the cell concentration was adjusted to 2×10^6 cells/ml. cAMP standards and Detection Buffer (comprising 2 μCi of tracer [^125I]-cAMP (100 μl) to 11 ml Detection Buffer) were prepared and maintained in accordance with the manufacturer's instructions. Candidate compounds identified as per above (if frozen, thawed at room temperature) were added to their respective wells (preferably wells of a 96-well plate) at increasing concentrations (3 μl/well; 12 μM final assay concentration). To these wells, 100,000 cells in 50 μl of Assay Buffer were added and the mixture was then incubated for 30 minutes at room temperature, with gentle shaking. Following the incubation, 100 μl of Detection Buffer was added to each well, followed by incubation for 2-24 hours. Plates were counted in a Wallac MicroBeta™ plate reader using “Prot. #31” (as per manufacturer instructions).

For experiment [2], the system named is adipocyte primary cultures derived from human subcutaneous fat. Put plainly: cells. The note with it: read-out: EC50, inhibition of isoproterenol induced lipolysis.
Text: (§1) Lipolysis assays were done following the isolation of adipocytes from-rat or human. The source of fat from rats was the epididymal fat and from humans was either subcutaneous or omental. Cells were isolated following collagenase digestion and floatation. An elevation of intracellular cAMP levels and concomitant activation of lipolysis via hormone sensitive lipase was accomplished using isoproterenol, forskolin, 3-isobutyl-1-methyl-xanthine (IBMX) or a combination thereof at concentrations and times determined empirically and depending on the source of tissue. […] Data was analyzed using Excel and PrismGraph.
Experiment [3] concerns rat epidimal fat derived adipocytes.
Text: as §1
In experiment [4] the test system is adipocyte primary cultures derived from human subcutaneous fat. The note with it: read-out: EC50, inhibition of isoproterenol induced lipolysis.
Text: as §1
Experiment [5] addresses T1, hRUP25. Put plainly: cell-based.

T1 sequence (Q8TDS4 whole entry): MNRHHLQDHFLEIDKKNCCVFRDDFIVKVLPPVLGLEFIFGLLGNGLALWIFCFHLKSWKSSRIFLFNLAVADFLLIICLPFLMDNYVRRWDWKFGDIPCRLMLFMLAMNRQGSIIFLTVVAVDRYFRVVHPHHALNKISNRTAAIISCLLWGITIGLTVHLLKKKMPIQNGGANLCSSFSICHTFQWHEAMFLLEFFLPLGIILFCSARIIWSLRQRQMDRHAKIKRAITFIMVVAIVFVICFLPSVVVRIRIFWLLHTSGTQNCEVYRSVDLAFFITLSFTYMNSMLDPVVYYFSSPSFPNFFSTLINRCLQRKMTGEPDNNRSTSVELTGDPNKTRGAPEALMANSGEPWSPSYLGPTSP

For `COCc1cc(C(=O)O)[nH]n1` [Compound 63, 5-Methoxymethyl-2H-pyrazole-3-carboxylic acid], on hRUP25 [1], the EC50 amounted to 7.9 µM.
For `O=C(O)c1cccnc1` [nicotinic acid, pyridine-3-carboxylic acid], the EC50 in experiment [2] was determined as 0.716 µM. The “inhibition of isoproterenol induced lipolysis” value in experiment [3] (10 μM) is reported as “inhibiting isoproterenol induced lipolysis”. In experiment [3] (increasing concentrations), the “dose-dependence of inhibition of isoproterenol induced lipolysis” value is listed as “dose-dependent inhibition”.
Turning to `c1cncc(-c2nn[nH]n2)c1` [Compound P-3-T, 3-tetrazole-5-pyridine], the EC50 in experiment [4] stood at 0.218 µM.
The compound `CN1CCCC1c1cccnc1` (stereo not shown) [nicotine] returned an EC50 on hRUP25 [5] of 9.8 µM.
Consider `CSCc1cc(C(=O)O)[nH]n1` [Compound 48, 5-Methylsulfanylmethyl-2H-pyrazole-3-carboxylic acid], for which the EC50 at hRUP25 [1] is 4.3 µM.

What is called EC50 is the concentration that produces a half-maximal response.
